The text below walks through data of patent US12359121B2, “Neutral fluorescent mitochondrial marker as amide derivative, and preparation method and use thereof” (SOOCHOW UNIVERSITY, priority 2021, dated 2025).

Data set [1] in a line: Photo stability under iodine tungsten lamp irradiation (residual absorptivity). The data set is classed as physicochemical. As to conditions: 10 μM in acetonitrile; 6 hrs continuous irradiation, 500 W iodine tungsten lamp, 25 cm. How it is done:
The photo stability of dyes 2a-2e, and 3a-e (with a concentration of 10 μM) prepared above was tested. Corresponding weights of dyes 2a-2e and 3a-e and their references coumarin and Nile red were weighed, and dissolved in acetonitrile (at a concentration of 10 μM) respectively. All the samples were irradiated with a Philips iodine tungsten lamp (500 W), and the distance between the lamp and the sample was set to 25 cm. An 8 cm-thick NaNO2 (60 g·L^−1) cold trap was positioned between the lamp and the sample, to eliminate heat and short-wavelength light. The irradiation was continued for 6 hrs, during which the ultraviolet fluorescence was tested every half an hour. After 6 hrs, the light stability was measured by residual absorptivity calculated based on the change in the absorption intensity at various times before and after the irradiation. […] The residual absorptivity of dyes 2a-e, and 3a-e is 2a: 93%, 2b: 92%, 2c: 95%, 2d: 91%, 2e: 97%, 3a: 93%, 3b: 92%, 3c: 94%, 3d: 93%, 3e: 92%. It can be seen that dyes 2a-2e and 3a-e have higher photo stability.

Data set [2] can be described thus: Ultraviolet-visible absorption and fluorescence emission in chloroform. It is filed as physicochemical. The conditions noted are these: 10 μM in chloroform; for maximum emission wavelength (highest fluorescence intensity): excitation 380-385 nm, slit 3 nm/1.5 nm (2a-e), excitation 545-550 nm, slit 1.5 nm/3 nm (3a-e). As to the method:
The ultraviolet absorption and fluorescence emission of the dyes prepared above (at a concentration of 10 μM) in chloroform were tested. The horizontal ordinate is the wavelength, and the vertical ordinate is the absorbance and fluorescence intensity, respectively.
In the ultraviolet-visible absorption spectrum, dye 2a has the maximum absorption at 388 nm; and in the fluorescence spectrum, dye 2a has the highest fluorescence intensity at 457 nm, where the excitation wavelength is 380 nm, and the slit width is 3 nm/1.5 nm. In the ultraviolet-visible absorption spectrum, dye 2b has a maximum absorption wavelength of 386 nm; and in the fluorescence spectrum, dye 2b has a maximum emission wavelength of 459 nm, where the excitation wavelength is 385 nm, and the slit width is 3 nm/1.5 nm. In the ultraviolet-visible absorption spectrum, dye 2c has a maximum absorption wavelength of 385 nm; and in the fluorescence spectrum, dye 2c has a maximum emission wavelength of 455 nm, where the excitation wavelength is 380 nm, and the slit width is 3 nm/1.5 nm. In the ultraviolet-visible absorption spectrum, dye 2d has the maximum absorption at 380 nm; and in the fluorescence spectrum, dye 2d has the highest fluorescence intensity at 457 nm, where the excitation wavelength is 380 nm, and the slit width is 3 nm/1.5 nm. In the ultraviolet-visible absorption spectrum, dye 2e has a maximum absorption wavelength of 385 nm; and in the fluorescence spectrum, dye 2e has a maximum emission wavelength of 458 nm, where the excitation wavelength is 385 nm, and the slit width is 3 nm/1.5 nm. In the ultraviolet-visible absorption spectrum, dye 3a has the maximum absorption at 554 nm; and in the fluorescence spectrum, dye 3a has the highest fluorescence intensity at 604 nm, where the excitation wavelength is 550 nm, and the slit width is 1.5 nm/3 nm. In the ultraviolet-visible absorption spectrum, dye 3b has a maximum absorption wavelength of 552 nm; and in the fluorescence spectrum, dye 3b has a maximum emission wavelength of 597 nm, where the excitation wavelength is 550 nm, and the slit width is 1.5 nm/3 nm. In the ultraviolet-visible absorption spectrum, dye 3c has a maximum absorption wavelength of 552 nm; and in the fluorescence spectrum, dye 3c has a maximum emission wavelength of 621 nm, where the excitation wavelength is 550 nm, and the slit width is 1.5 nm/3 nm. In the ultraviolet-visible absorption spectrum, dye 3d has a maximum absorption wavelength of 551 nm; and in the fluorescence spectrum, dye 3d has a maximum emission wavelength of 607 nm, where the excitation wavelength is 545 nm, and the slit width is 1.5 nm/3 nm. In the ultraviolet-visible absorption spectrum, dye 3e has a maximum absorption wavelength of 553 nm; and in the fluorescence spectrum, dye 3e has a maximum emission wavelength of 585 nm, where the excitation wavelength is 550 nm, and the slit width is 1.5 nm/3 nm. The above UV absorption and fluorescence emission test methods are conventional methods.

For data set [3], the system named is mitochondria in HeLa cells. The experiment in a line: Colocalization imaging with green mitochondrial marker Mito Tracker Green FM, laser confocal microscope. It is filed as cell-based. The conditions noted are these: 2 μM; for mitochondria labeling ability: red channel; for colocalization coefficient: versus Mito Tracker Green FM (100 nm). How it is done: Dye 3a was formulated into a mother liquor in DMSO (dimethyl sulfoxide), and then added to a conventional cell culture medium to give a concentration of dye 3a in the cell culture medium of 2 μM. HeLa cells were co-cultured for 10 min in an incubator at saturated humidity, 37° C., and 5% CO2 (the experiment was same below). The green mitochondrial marker Mito Tracker® Green FM (100 nm) was added, and the cells were co-incubated for another 10 min, washed three times with a PBS buffer, and imaged under a laser confocal microscope. In the red channel, light of 561 nm was used for excitation, and a fluorescence signal in the range of 570-750 nm was collected. In the green channel, light of 488 nm was used for excitation, and a fluorescence signal in the range of 500-550 nm was collected.
The experiment method with dye 3b (2 μM), dye 3c (2 μM), dye 3d (2 μM), and dye 3e (2 μM) was the same with that with dye 3a, except that dye 3a was replaced.

The test system of data set [4] is mitochondria in HeLa cells. The experiment in a line: Colocalization imaging with red mitochondrial marker Mito Tracker Red CMXRos, laser confocal microscope. The conditions noted are these: 2 μM; for mitochondria labeling ability: blue channel; for colocalization coefficient: versus Mito Tracker Red CMXRos (100 nm). The data set is classed as cell-based. How it is done:
To test the fluorescent labeling ability of Compound 2a compared with commercial mitochondrial markers, dye 2a was formulated into a mother liquor in DMSO (dimethyl sulfoxide), and then added to a conventional cell culture medium to give a concentration of dye 2a in the cell culture medium of 2 μM. HeLa cells were co-cultured for 10 min in an incubator at saturated humidity, 37° C., and 5% CO2 (the experiment was same below). The red mitochondrial marker Mito Tracker© Red CMXRos (100 nm) was added, and the cells were co-incubated for another 10 min, washed three times with a PBS buffer, and imaged under a laser confocal microscope. In the blue channel, light of 405 nm was used for excitation, and a fluorescence signal in the range of 410-500 nm was collected; and in the red channel, light of 561 nm was used for excitation, and a fluorescence signal in the range of 570-750 nm was collected.
The experiment method with dye 2b (2 μM), dye 2c (2 μM), dye 2d (2 μM), and dye 2e (2 μM) was the same with that with dye 2a, except that dye 2a was replaced.

In turn, `CCN(CC)c1ccc2nc3c4ccccc4c(=O)cc-3oc2c1` [Nile Red, Nile red, reference compound] came in with a residual absorptivity in data set [1] of 97%.
Consider `CCN(CC)c1ccc2nc3c4ccc(-c5ccc(C(=O)NC)cc5)cc4c(=O)cc-3oc2c1` [dye 3b], for which, in data set [2], the maximum absorption wavelength was determined as 552 nm and the “maximum emission wavelength (highest fluorescence intensity)” value (from here on “maximum emission wavelength”) is listed as 597 nm. Moreover, in data set [3], the mitochondria labeling ability result was “has mitochondria labeling ability” and the colocalization coefficient was 0.88. The same compound showed a residual absorptivity in data set [1] of 92%.
On to `CCN(CC)c1ccc2nc3c4ccc(-c5ccc6c(c5)CC(=O)N6)cc4c(=O)cc-3oc2c1` [dye 3d], for which, in data set [2], the maximum absorption wavelength is reported as 551 nm and the “maximum emission wavelength” value is 607 nm. Besides, in data set [3], the mitochondria labeling ability entry is “has mitochondria labeling ability” and the colocalization coefficient is listed as 0.96. Further, the residual absorptivity in data set [1] was 93%.
With `CCN(CC)c1ccc2c(C)c(-c3ccc4c(c3)CCC(=O)N4)c(=O)oc2c1` [dye 2e], in data set [4], the mitochondria labeling ability entry is “have mitochondria labeling ability” and the colocalization coefficient turned out to be 0.91. Further, in data set [2], the maximum absorption wavelength was 385 nm and the “maximum emission wavelength” value turned out to be 458 nm. The compound further returned a residual absorptivity in data set [1] of 97%.
The compound `O=c1ccc2ccccc2o1` [coumarin, reference compound] came in with a residual absorptivity in data set [1] of 94%.
In the case of `CCN(CC)c1ccc2nc3c4ccc(-c5ccc6c(c5)CCC(=O)N6)cc4c(=O)cc-3oc2c1` [dye 3e], in data set [2], the maximum absorption wavelength was found to be 553 nm and the “maximum emission wavelength” value is listed as 585 nm. In addition, in data set [3], the mitochondria labeling ability entry was “has mitochondria labeling ability” and the colocalization coefficient is on record as 0.92. In addition, in data set [1], the residual absorptivity came out at 92%.
The like results for `CCN(CC)c1ccc2nc3c4ccc(-c5ccc(C(=O)N(C)C)cc5)cc4c(=O)cc-3oc2c1` [dye 3c] were, in that order, 552 nm, 621 nm, “has mitochondria labeling ability”, 0.94 and 94%.
Turning to `CCN(CC)c1ccc2c(C)c(-c3ccc4c(c3)CC(=O)N4)c(=O)oc2c1` [dye 2d], in data set [4], the mitochondria labeling ability entry is recorded as “have mitochondria labeling ability” and the colocalization coefficient is reported as 0.92. Besides, in data set [2], the maximum absorption wavelength came to 380 nm and the “maximum emission wavelength” value is 457 nm. This compound gave a residual absorptivity in data set [1] of 91%.
Turning to `CCN(CC)c1ccc2nc3c4ccc(-c5ccc(C(N)=O)cc5)cc4c(=O)cc-3oc2c1` [dye 3a], in data set [2], the maximum absorption wavelength was 554 nm and the “maximum emission wavelength” value was found to be 604 nm. In data set [3], the mitochondria labeling ability entry is reported as “has mitochondria labeling ability” and the colocalization coefficient is reported as 0.94. This compound returned a residual absorptivity in data set [1] of 93%.
With `CCN(CC)c1ccc2c(C)c(-c3ccc(C(=O)N(C)C)cc3)c(=O)oc2c1` [dye 2c], in data set [4], the mitochondria labeling ability result is “have mitochondria labeling ability” and the colocalization coefficient came out at 0.88. In addition, in data set [2], the maximum absorption wavelength amounted to 385 nm and the “maximum emission wavelength” value worked out at 455 nm. In data set [1], this compound returned a residual absorptivity of 95%.
The like results for `CCN(CC)c1ccc2c(C)c(-c3ccc(C(=O)NC)cc3)c(=O)oc2c1` [dye 2b] were, in that order, “have mitochondria labeling ability”, 0.94, 386 nm, 459 nm and 92%.
The like results for `CCN(CC)c1ccc2c(C)c(-c3ccc(C(N)=O)cc3)c(=O)oc2c1` [dye 2a] were, in that order, “has mitochondria labeling ability”, 0.88, 388 nm, 457 nm and 93%.
